In patent publication US20240002388A1, “PYRIMIDINONE COMPOUNDS AND USES THEREOF” (HUTCHISON MEDIPHARMA LIMITED, priority 2020, published 2024):

Target: RIPK1 recombination protein (Homo sapiens (Human), UniProt Q13546)
Test: RIPK1 kinase activity assay (ADP-Glo)
Format: biochemical
Conditions: RIPK1 kinase activity, ADP-Glo, 10 μM ATP
Procedure: RIPK1 recombination protein: synthesized by Shanghai Medicilon Inc. under the commission by Hutchison MediPharma Limited (50 g of cell pellet was resuspended in 250 mL of lysis buffer (50 mM Tris, pH 7.5, 250 mM NaCl, 1 mM DTT, protease inhibitor 1:50), the cells were ultrasonically lysed using a sonicator (the power set to 4) on ice for 3×30 minutes; then centrifugation was carried out at 4° C., at 15,000 g for 30 minutes to clarify the suspension, the soluble pellet was resuspended into 10 mL of glutathione agarose, and incubated at 4° C. for 2 hours; then the beads were loaded into the column and washed with lysis buffer (no protease inhibitors) to baseline, and eluted with 20 mM of reduced glutathione (50 mM Tris, pH 8). The fractions identified by SDS-PAGE as containing the protein of interest were collected (10 mL of total volume), concentrated to about 5 mL and loaded into 300 mL superdex75 column (GE Healthcare) equilibrated with buffer (50 mM Tris, pH 7.5, 150 mM NaCl, 1 mM DTT, 10% glycerol, pH 7.5). RIP1 protein was eluted as a dimer from the superdex75 column. The protein concentration was determined by the Bradford assay using BSA as the standard. The yield was 12.5 mg at 0.63 mg/mL. The protein was aliquoted and frozen at −80° C. for later use.
ADP-Glo Kinase kit can be used to measure ADP level in kinase activity assay so as to distinguish the inhibitory effects of different compounds on RIPK1 kinase activity. The ADP-Glo assay was usually divided into three steps. Firstly, the kinase converted ATP to ADP and phosphorylated the substrate at the same time; secondly, ATP digestion reagent was added to degrade all ATP in the reaction system; finally, a detection reagent was added to reduce ADP to ATP, and energy from ATP was transferred to […] which thus emitting a chemical luminescence that can be detected. Assay procedure can refer to manufacture's technical manual.
(2) Reagent Preparation: • 1.33× kinase buffer: 5× kinase buffer stock (250 mM of NaCl, 150 mM of MgCl2, 2.5 mg/ml BSA (bovine serum albumin), 0.1% CHAPS (3-[(3-cholamidopropyl)-dimethyl-ammonio]-1-propane sulfonate), and 5 mM of dithiothreitol) was diluted with water to 1.33× kinase buffer; • RIPK1 enzyme solution: the kinase was dissolved in 1.33× kinase buffer to make 40 nM as the final working concentration; • ATP solution: 10 mM ATP stock solution in water was dissolved in 1.33× kinase buffer to make 10 μM as the final working concentration; • 4× compound preparation: the compound was diluted in a 3-fold gradient, and finally 4% DMSO aqueous solution containing different concentrations of the compound was obtained. The final concentrations of the test compound were 10, 3.33, 1.11, 0.37, 0.12, 0.04, 0.014, and 0.005 μM.
The assay set up two control groups, one was 100% inhibition group (no enzyme treatment), another was 0% inhibition group (no inhibitor treatment), each control group contained 8 replicate wells. 2.5 μl of serially diluted compound was added to each well of a 384-well plate, with double replicate wells, and 4% DMSO solution was added to control wells. Then 5 μl of RIPK1 enzyme solution was added to each well except 100% inhibition control, 5 ul of buffer was added to 100% inhibition control, after that, 2.5 μl of ATP solution was added to all wells, the plate was vibrated at 1000 rpm for 30 seconds to perform transient centrifuge; finally the 384-well assay plate was put in the shaking incubator, and incubated at room temperature for 3 hours. After the enzymatic reaction was completed, 5 μl of ATP depletion reagent was added to each well, the mixture was centrifuged transiently, then the 384-well assay plate was put in the shaking incubator, and incubated at room temperature for 1 hour. 5 μl of ADP detection reagent was added to each well, and the mixture was centrifuged transiently, and incubated at room temperature for 0.5 hour. […]

Sequence of RIPK1 recombination protein (Q13546 other isoform, or with tags, fused parts or gaps): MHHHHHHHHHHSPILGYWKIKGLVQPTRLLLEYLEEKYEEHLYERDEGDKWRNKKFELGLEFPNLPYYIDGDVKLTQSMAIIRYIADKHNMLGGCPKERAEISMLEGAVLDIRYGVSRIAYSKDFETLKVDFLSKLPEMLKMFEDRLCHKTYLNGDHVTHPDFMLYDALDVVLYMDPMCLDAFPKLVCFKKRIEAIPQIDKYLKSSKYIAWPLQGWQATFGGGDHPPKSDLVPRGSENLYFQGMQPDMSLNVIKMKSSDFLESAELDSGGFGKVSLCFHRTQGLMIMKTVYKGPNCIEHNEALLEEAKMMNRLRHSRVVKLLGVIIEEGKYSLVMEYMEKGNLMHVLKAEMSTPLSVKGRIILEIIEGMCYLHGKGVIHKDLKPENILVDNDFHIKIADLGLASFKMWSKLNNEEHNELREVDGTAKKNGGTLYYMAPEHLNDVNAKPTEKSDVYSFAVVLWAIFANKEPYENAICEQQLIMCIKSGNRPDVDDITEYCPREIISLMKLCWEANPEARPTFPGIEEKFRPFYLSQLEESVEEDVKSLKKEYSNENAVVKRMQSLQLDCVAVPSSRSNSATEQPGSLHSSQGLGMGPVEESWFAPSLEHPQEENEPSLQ

Row | Structure (SMILES) | IC50
1 | Cn1cncc(-c2ccc(C3(NC(=O)c4nnc(Cc5c(F)cccc5F)[nH]4)CC3)cc2)c1=O [Compound 18] | 38 nM
2 | CC(C)n1cncc(-c2ccc(C3(NC(=O)c4ncc5cnn(C(C)C)c5n4)CC3)c(F)c2Cl)c1=O [Compound 91] | 72 nM
3 | CC(C)n1ncc2cnc(C(=O)NC3(c4ccc(-c5cncn(CC6CC6)c5=O)cc4F)CC3)nc21 [Compound 74] | 62 nM
4 | CC(C#N)n1cncc(-c2ccc(C3(NC(=O)c4ncc5cnn(C(C)C)c5n4)CC3)cc2)c1=O (stereo in doubt) [Compound 82, (R)—N-(1-(4-(1-(1-cyanoethyl)-6-oxo-1,6-dihydropyrimidin-5-yl)phenyl)cyclopropyl)-1-i-propyl-1H-pyrazolo[3,4-d]pyrimidine-6-carboxamide] | 51 nM
5 | CC(C)n1ncc2cnc(C(=O)NC3(c4ccc(-c5cncn([C@H]6C[C@@H](F)C6)c5=O)cc4)CC3)nc21 [Compound 88, N-(1-(4-(1-(cis-3-fluorocyclobutyl)-6-oxo-1,6-dihydropyrimidin-5-yl)phenyl)cyclopropyl)-1-i-propyl-1H-pyrazolo[3,4-d]pyrimidine-6-carboxamide] | 41 nM
6 | C[C@@H](n1cncc(-c2ccc(C3(NC(=O)c4ncc5cnn(CC6CC6)c5n4)CC3)c(F)c2)c1=O)C(F)(F)F [Compound 76] | 51 nM
7 | CC(C)n1cncc(-c2ccc(C3(NC(=O)c4ncc5cnn([C@H](C)C6CC6)c5n4)CC3)cc2)c1=O [Compound 89, (R)-1-(1-cyclopropylethyl)-N-(1-(4-(1-i-propyl-6-oxo-1,6-dihydropyrimidin-5-yl)phenyl)cyclopropyl)-1H-pyrazolo[3,4-d]pyrimidine-6-carboxamide] | 48 nM
8 | CC(C)n1ncc2cnc(C(=O)NC3(c4ccc(-c5cncn(C6CCC6)c5=O)cc4)CC3)nc21 [Compound 42] | 56 nM
9 | Cn1cncc(-c2ccc(C3(NC(=O)c4noc(Cc5ccccc5)n4)CC3)cc2)c1=O [Compound 9] | 37 nM
10 | CC(C)n1cncc(-c2ccc(C3(NC(=O)c4ncc5cnn(C(C)C6CC6)c5n4)CC3)cc2)c1=O (racemic) [Compound 59, 1-(1-cyclopropylethyl)-N-(1-(4-(1-i-propyl-6-oxo-1,6-dihydropyrimidin-5-yl)phenyl)cyclopropyl)-1H-pyrazolo[3,4-d]pyrimidine-6-carboxamide] | 26 nM
11 | CC(C)n1ncc2cnc(C(=O)NC3(c4ccc(-c5cncn([C@H]6C[C@H](F)C6)c5=O)cc4)CC3)nc21 [Compound 87, N-(1-(4-(1-(trans-3-fluorocyclobutyl)-6-oxo-1,6-dihydropyrimidin-5-yl)phenyl)cyclopropyl)-1-i-propyl-1H-pyrazolo[3,4-d]pyrimidine-6-carboxamide] | 41 nM
12 | CC(C)n1cncc(-c2ccc(C3(NC(=O)c4nc5n(n4)[C@@H](c4ccccc4)CC5)CC3)cc2)c1=O [Compound 15] | 30 nM
13 | CC(C)n1cncc(-c2ccc(C3(NC(=O)c4ncc5cnn(C(C)C)c5n4)CC3)c(F)c2)c1=O [Compound 34] | 65 nM
14 | CC[C@@H](C)n1cncc(-c2ccc(C3(NC(=O)c4ncc5cnn(C(C)C)c5n4)CC3)cc2)c1=O [Compound 44] | 37 nM
15 | CC(C)n1ncc2cnc(C(=O)NC3(c4ccc(-c5cncn(C)c5=O)cn4)CC3)nc21 [Compound 2] | 63 nM
16 | CC(C)n1ncc2cnc(C(=O)NC3(c4ccc(-c5cncn(C6CCOC6)c5=O)cc4)CC3)nc21 (stereo in doubt) [Compound 80, (R)-1-i-propyl-N-(1-(4-(6-oxo-1-(tetrahydrofuran-3-yl)-1,6-dihydropyrimidin-5-yl)phenyl)cyclopropyl)-1H-pyrazolo[3,4-d]pyrimidine-6-carboxamide] | 42 nM
17 | CC(C)n1cncc(-c2ccc(C3(NC(=O)c4ncc5cnn(CC6CCC6)c5n4)CC3)cc2)c1=O [Compound 62] | 21 nM
18 | Cn1cncc(-c2ccc(C3(NC(=O)c4nc5n(n4)[C@@H](c4ccccc4)CC5)CC3)cc2)c1=O [Compound 54, (R)—N-(1-(4-(1-methyl-6-oxo-1,6-dihydropyrimidin-5-yl)phenyl)cyclopropyl)-5-phenyl-6,7-dihydro-5H-pyrrolo[1,2-b][1,2,4]triazole-2-carboxamide] | 27 nM

Row | Structure (SMILES) | IC50
19 | CC(C)n1ncc2cnc(C(=O)NC3(c4ccc(-c5cncn([C@H]6C[C@@H]6F)c5=O)cc4)CC3)nc21 [Compound 67] | 49 nM
20 | CC(C)n1ncc2cnc(C(=O)NC3(c4ccc(-c5cncn([C@H](C)C(F)(F)F)c5=O)cc4F)CC3)nc21 (stereo in doubt) [Compound 46] | 35 nM
21 | Cn1cncc(-c2ccc(C3(NC(=O)c4ncn(Cc5ccccc5)n4)CC3)cc2)c1=O [Compound 8] | 22 nM
22 | CC(C)n1cncc(-c2ccc(C3(NC(=O)c4ncc5cnn(-c6ccccn6)c5n4)CC3)cc2)c1=O [Compound 63] | 37 nM
23 | CC(C)n1cncc(-c2ccc(C3(NC(=O)c4ncc5cnn(CC6CC6)c5n4)CC3)cc2F)c1=O [Compound 73] | 52 nM
24 | CC(C)n1ncc2cnc(C(=O)NC3(c4ccc(-c5cncn(C6(C)CCC6)c5=O)cc4)CC3)nc21 [Compound 79] | 21 nM
25 | CC(C)n1cncc(-c2ccc(C3(NC(=O)c4nnc(Cc5ccccc5)o4)CC3)cc2)c1=O [Compound 13] | 22 nM
26 | CC(C)n1cncc(-c2ccc(C3(NC(=O)c4nc5n(n4)[C@H](c4ccccc4)CC5)CC3)cc2)c1=O [Compound 16] | 25 nM
27 | CC(C)n1ncc2cnc(C(=O)NC3(c4ccc(-c5cncn(C6CC(F)(F)C6)c5=O)cc4)CC3)nc21 [Compound 65] | 36 nM
28 | CC(C)n1cncc(-c2ccc(C3(NC(=O)c4ncc5cnn(C(C)C)c5n4)CC3)cc2Cl)c1=O [Compound 33] | 59 nM
29 | CC(C)n1ncc2cnc(C(=O)NC3(c4ccc(-c5cncn(C)c5=O)c(Cl)c4)CC3)nc21 [Compound 25] | 53 nM
30 | CC(C)n1cncc(-c2ccc(C3(NC(=O)c4ncc5cnn(C(C)C)c5n4)CC3)cc2F)c1=O [Compound 35] | 47 nM
31 | CC(C)n1cncc(-c2ccc(C3(NC(=O)c4ncc5cnn([C@@H](C)C6CC6)c5n4)CC3)cc2)c1=O [Compound 90, (S)-1-(1-cyclopropylethyl)-N-(1-(4-(1-i-propyl-6-oxo-1,6-dihydropyrimidin-5-yl)phenyl)cyclopropyl)-1H-pyrazolo[3,4-d]pyrimidine-6-carboxamide] | 54 nM
32 | CC(C)n1ncc2cnc(C(=O)NC3(c4cc(F)c(-c5cncn(CC6CC6)c5=O)cc4F)CC3)nc21 [Compound 94] | 27 nM
33 | CC(C)n1cncc(-c2ccc(C3(NC(=O)c4ncc5cnn(C6COC6)c5n4)CC3)cc2)c1=O [Compound 60] | 59 nM
34 | CC(C)n1ncc2cnc(C(=O)NC3(c4ccc(-c5cnc(N)n(C)c5=O)cc4)CC3)nc21 [Compound 30] | 35 nM
35 | CC(C)n1ncc2cnc(C(=O)NC3(c4ccc(-c5cncn(C6CCOCC6)c5=O)cc4)CC3)nc21 [Compound 77] | 42 nM
36 | CC(C)n1ncc2cnc(C(=O)NC3(c4ccc(-c5cncn([C@H](C)C6CC6)c5=O)cc4)CC3)nc21 [Compound 84, (R)—N-(1-(4-(1-(1-cyclopropylethyl)-6-oxo-1,6-dihydropyrimidin-5-yl)phenyl)cyclopropyl)-1-i-propyl-1H-pyrazolo[3,4-d]pyrimidine-6-carboxamide] | 45 nM
